Measured values as given in patent US8362000B2, “Azetidinyl diamides as monoacylglycerol lipase inhibitors” (Janssen Pharmaceutica NV, priority 2009, dated 2013).
Residue numbers refer to the chain shown, from its start. Like-named read-outs stand apart in the source and are kept apart here.

Experiments:
[1] = biological target: T1, purified wild type MGL (wt-MGLL 6H-11-313) (Homo sapiens, UniProt Q99685)
T1 sequence (Q99685 1-303): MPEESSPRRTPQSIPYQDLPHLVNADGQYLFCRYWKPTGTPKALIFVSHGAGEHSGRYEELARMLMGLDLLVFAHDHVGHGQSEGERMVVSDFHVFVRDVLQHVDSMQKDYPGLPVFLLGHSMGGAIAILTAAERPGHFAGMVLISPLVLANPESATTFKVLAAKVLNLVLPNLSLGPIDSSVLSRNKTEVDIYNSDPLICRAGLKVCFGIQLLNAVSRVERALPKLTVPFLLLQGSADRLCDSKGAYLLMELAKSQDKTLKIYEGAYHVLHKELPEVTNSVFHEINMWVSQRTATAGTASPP

mutant MGL = biological target: T2, mutant MGL (Homo sapiens, UniProt Q99685, L169S/L176S); assay: MGL ThermoFluor assay - mutant; assay type: binding
T2 sequence (Q99685 1-303 L169S/L176S): T1 sequence (Q99685 1-303) with L169S, L176S

[2] = compound concentration measured by qNMR, read-out: MGL mutant ThermoFluor qKd (using qNMR conc.)
[3] = ThermoFluor, compound concentration measured by qNMR, read-out: MGL mutant ThermoFluor qKd (using qNMR conc.)
[4] = ThermoFluor, compound concentration measured by qNMR, read-out: MGL mutant ThermoFluor qKd (μM) (using qNMR conc.)

Row | IC50 [1] | Kd (mutant MGL; [2]) | Kd (mutant MGL; [3]) | Kd (mutant MGL; [4]) | Kd (mutant MGL; ThermoFluor concentration-response, read-out: MGL mutant ThermoFluor Kd) | Structure (SMILES)
1 | 0.016 µM | – | – | 0.046 µM | – | O=C(c1ccc(-c2cccc(C(F)(F)F)c2)cc1)N1CC(N2CCN(C(=O)C3CC3(F)F)CC2)C1 (stereo not shown) [Cpd 1112]
2 | 0.016 µM | – | – | 0.005 µM | – | COc1cc(-n2ccc3cc(C(=O)N4CC(N5CCN(C(=O)c6nccs6)CC5)C4)ccc32)ccc1C#N [Cpd 1115]
3 | 0.016 µM | – | – | 0.053 µM | – | O=C(c1ccc(-c2cccc(C(F)(F)F)c2)cc1)N1CC(N2CCN(C(=O)c3ccno3)CC2)C1 [Cpd 1118]
4 | 0.017 µM | – | 0.02 µM | – | – | O=C(c1ccc2c(-c3ccccc3)c(-c3ccccc3)[nH]c2c1)N1CC(N2CCN(C(=O)c3nccs3)CC2)C1 [Cpd 1119]
5 | 0.018 µM | – | 0.042 µM | – | – | O=C(c1ccc2c(ccn2-c2ccc(F)cn2)c1)N1CC(N2CCN(C(=O)c3nccs3)CC2)C1 [Cpd 1121, 1-(5-Fluoropyridin-2-yl)-5-({3-[4-(1,3-thiazol-2-ylcarbonyl)piperazin-1-yl]azetidin-1-yl}carbonyl)-1H-indole]
6 | 0.019 µM | – | 1.35 µM | – | – | O=C(c1ccc(-n2cc(-c3cc(F)cc(F)c3)cn2)cc1)N1CC(N2CCN(C(=O)c3nccs3)CC2)C1 [Cpd 1123]
7 | 0.02 µM | – | 0.098 µM | – | – | O=C(c1ccc2c(ccn2-c2ccncc2)c1)N1CC(N2CCN(C(=O)c3nccs3)CC2)C1 [Cpd 1127, 1-Pyridin-4-yl-5-({3-[4-(1,3-thiazol-2-ylcarbonyl)piperazin-1-yl]azetidin-1-yl}carbonyl)-1H-indole]
8 | 0.021 µM | – | 0.018 µM | – | – | Cc1ccnc(-n2ccc3cc(C(=O)N4CC(N5CCN(C(=O)c6nccs6)CC5)C4)ccc32)c1 [Cpd 1128, 1-(4-Methylpyridin-2-yl)-5-({3-[4-(1,3-thiazol-2-ylcarbonyl)piperazin-1-yl]azetidin-1-yl}carbonyl)-1H-indole]
9 | 0.029 µM | 0.001 µM | – | – | – | Cn1cc(-c2cccc(F)c2)c2ccc(C(=O)N3CC(N4CCN(C(=O)c5nccs5)CC4)C3)cc21 [Cpd 1142]
10 | 0.03 µM | – | – | 0.07 µM | – | O=C(c1ccc(-c2cccc(C(F)(F)F)c2)cc1)N1CC(N2CCN(C(=O)c3ccc(Cl)s3)CC2)C1 [Cpd 1143]
11 | 0.031 µM | – | – | 0.061 µM | – | O=C(c1ccc(-c2cccc(C(F)(F)F)c2)cc1)N1CC(N2CCN(C(=O)c3ccon3)CC2)C1 [Cpd 1145]
12 | 0.032 µM | – | 0.08 µM | – | – | Cc1nn(-c2cccc(C(F)(F)F)c2)c2sc(C(=O)N3CC(N4CCN(C(=O)c5nccs5)CC4)C3)cc12 [Cpd 1146]
13 | 0.035 µM | – | – | 0.004 µM | – | Cc1c(C(=O)N2CC(N3CCN(C(=O)c4nccs4)CC3)C2)[nH]c2ccc(-c3cccnc3F)cc12 [Cpd 1149, 5-(2-Fluoropyridin-3-yl)-3-methyl-2-({3-[4-(1,3-thiazol-2-ylcarbonyl)piperazin-1-yl]azetidin-1-yl}carbonyl)-1H-indole]
14 | 0.042 µM | – | – | – | 0.008 µM | O=C(c1ccc2nc(-c3cccc(C(F)(F)F)c3)oc2c1)N1CC(N2CCN(C(=O)c3nccs3)CC2)C1 [Cpd 1158, 6-({3-[4-(1,3-Thiazol-2-ylcarbonyl)piperazin-1-yl]azetidin-1-yl}carbonyl)-2-[3-(trifluoromethyl)phenyl]-1,3-benzoxazole]
15 | 0.051 µM | – | – | 0.09 µM | – | O=C(c1ccc2nc(-c3ccccn3)sc2c1)N1CC(N2CCN(C(=O)c3nccs3)CC2)C1 [Cpd 1165]
16 | 0.055 µM | – | – | 0.053 µM | – | O=C(c1ccc(-c2cccc(C(F)(F)F)c2)cc1)N1CC(N2CCN(C(=O)c3cnco3)CC2)C1 [Cpd 1169]
17 | 0.066 µM | – | – | 0.01 µM | – | COc1cncc(-c2ccc3[nH]c(C(=O)N4CC(N5CCN(C(=O)c6nccs6)CC5)C4)c(C)c3c2)c1 [Cpd 1175]
18 | 0.075 µM | – | 0.019 µM | – | – | O=C(c1ccc2c(ccn2-c2ccc(Cl)cn2)c1)N1CC(N2CCN(C(=O)c3cscn3)CC2)C1 [Cpd 1180, 1-(5-Chloropyridin-2-yl)-5-({3-[4-(1,3-thiazol-4-ylcarbonyl)piperazin-1-yl]azetidin-1-yl}carbonyl)-1H-indole]

Continued, compound first:

Row | Structure (SMILES) | IC50 [1] | Kd (mutant MGL; [2]) | Kd (mutant MGL; [3]) | Kd (mutant MGL; [4]) | Kd (mutant MGL; ThermoFluor concentration-response, read-out: MGL mutant ThermoFluor Kd)
19 | O=C(c1cnc2c(ccn2Cc2ccc(F)cc2)c1)N1CC(N2CCN(C(=O)c3nccs3)CC2)C1 [Cpd 1043, 1-(4-Fluorobenzyl)-5-({3-[4-(1,3-thiazol-2-ylcarbonyl)piperazin-1-yl]azetidin-1-yl}carbonyl)-1H-pyrrolo[2,3-b]pyridine] | 0.016 µM | 0.055 µM | – | – | –
20 | NC(=O)c1ccc(Cn2ncc3cc(C(=O)N4CC(N5CCN(C(=O)c6nccs6)CC5)C4)ccc32)cc1 [Cpd 1044, 4-{[5-({3-[4-(1,3-Thiazol-2-ylcarbonyl)piperazin-1-yl]azetidin-1-yl]carbonyl)-1H-indazol-1-yl}methyl}benzamide] | 0.718 µM | 0.945 µM | – | – | –
21 | N#Cc1ccc(Cn2ncc3cc(C(=O)N4CC(N5CCN(C(=O)c6nccs6)CC5)C4)ccc32)cc1 [Cpd 1045, 4-{[5-({3-[4-(1,3-Thiazol-2-ylcarbonyl)piperazin-1-yl]azetidin-1-yl]carbonyl)-1H-indazol-1-yl}methyl}benzonitrile] | 0.021 µM | 0.19 µM | – | – | –
22 | O=C(c1ccc2c(ccn2Cc2ccncc2)c1)N1CC(N2CCN(C(=O)c3nccs3)CC2)C1 [Cpd 1046] | 0.288 µM | 0.064 µM | – | – | –
23 | O=C(c1ccc2ccn(Cc3ccncc3)c2c1)N1CC(N2CCN(C(=O)c3nccs3)CC2)C1 [Cpd 1047] | 4.63 µM | 0.471 µM | – | – | –
24 | O=C(c1ccc2c(ccn2Cc2cccnc2)c1)N1CC(N2CCN(C(=O)c3nccs3)CC2)C1 [Cpd 1048] | 0.695 µM | 0.146 µM | – | – | –
25 | O=C(c1ccc2c(cnn2CCc2ccc(F)cc2)c1)N1CC(N2CCN(C(=O)c3nccs3)CC2)C1 [Cpd 1049, 1-[2-(4-Fluorophenyl)ethyl]-5-({3-[4-(1,3-thiazol-2-ylcarbonyl)piperazin-1-yl]azetidin-1-yl}carbonyl)-1H-indazole] | 0.01 µM | 0.05 µM | – | – | –
26 | O=C(c1ccc2nn(CCc3ccc(F)cc3)cc2c1)N1CC(N2CCN(C(=O)c3nccs3)CC2)C1 [Cpd 1050, 2-[2-(4-Fluorophenyl)ethyl]-5-({3-[4-(1,3-thiazol-2-ylcarbonyl)piperazin-1-yl]azetidin-1-yl}carbonyl)-2H-indazole] | 0.024 µM | 0.085 µM | – | – | –
27 | O=C(c1ccc2cnn(Cc3ccc(F)cc3)c2c1)N1CC(N2CCN(C(=O)c3nccs3)CC2)C1 [Cpd 1051, 1-(4-Fluorobenzyl)-6-({3-[4-(1,3-thiazol-2-ylcarbonyl)piperazin-1-yl]azetidin-1-yl}carbonyl)-1H-indazole] | 0.128 µM | 0.175 µM | – | – | –
28 | O=C(c1ccc2cn(Cc3ccc(F)cc3)nc2c1)N1CC(N2CCN(C(=O)c3nccs3)CC2)C1 [Cpd 1052, 2-(4-Fluorobenzyl)-6-({3-[4-(1,3-thiazol-2-ylcarbonyl)piperazin-1-yl]azetidin-1-yl}carbonyl)-2H-indazole] | 0.028 µM | 0.065 µM | – | – | –
29 | Cc1nn(Cc2ccc(Cl)cc2)c2sc(C(=O)N3CC(N4CCN(C(=O)c5nccs5)CC4)C3)cc12 [Cpd 1053] | 0.018 µM | – | 0.247 µM | – | –
30 | O=C(c1ccc(-c2cccc(C(F)(F)F)c2)cc1)N1CC(N2CCN(C(=O)C3CC3)CC2)C1 [Cpd 1057] | 0.006 µM | – | – | 0.016 µM | –
31 | Cc1ccc(-n2ccc3cc(C(=O)N4CC(N5CCN(C(=O)c6nccs6)CC5)C4)ccc32)nc1 [Cpd 1073, 1-(5-Methylpyridin-2-yl)-5-({3-[4-(1,3-thiazol-2-ylcarbonyl)piperazin-1-yl]azetidin-1-yl}carbonyl)-1H-indole] | 0.034 µM | – | 0.087 µM | – | –
32 | Cc1cc(C(=O)N2CC(N3CCN(C(=O)c4cscn4)CC3)C2)cc2ccn(-c3ccc(F)cc3)c12 [Cpd 1076] | 0.008 µM | 0.02 µM | – | – | –
33 | O=C(c1ccc(-c2cccc(C(F)(F)F)c2)cc1)N1CC(N2CCN(C(=O)c3ccc(Cl)o3)CC2)C1 [Cpd 1078] | 0.009 µM | – | – | 0.005 µM | –
34 | O=C(c1ccc2c(ccn2-c2ccc(F)cc2)c1)N1CC(N2CCN(C(=O)C(F)(F)F)CC2)C1 [Cpd 1079, 1-(4-Fluorophenyl)-5-({3-[4-(trifluoroacetyl)piperazin-1-yl]azetidin-1-yl}carbonyl)-1H-indole] | 0.009 µM | – | 0.272 µM | – | –
35 | O=C(c1ccc2c(cnn2-c2ccc(C(F)(F)F)cc2)c1)N1CC(N2CCN(C(=O)c3nccs3)CC2)C1 [Cpd 1080] | 0.009 µM | – | – | 0.006 µM | –
36 | O=C(c1ccc(-c2cccc(C(F)(F)F)c2)cc1)N1CC(N2CCN(C(=O)c3ncco3)CC2)C1 [Cpd 1085] | 0.009 µM | – | – | 0.008 µM | –
37 | O=C(c1ccc(-c2cccc(C(F)(F)F)c2)cc1)N1CC(N2CCN(C(=O)c3cc(Br)cs3)CC2)C1 [Cpd 1087] | 0.009 µM | – | – | 0.023 µM | –
38 | O=C(c1ccc(-c2cccc(C(F)(F)F)c2)cc1)N1CC(N2CCN(C(=O)c3cocn3)CC2)C1 [Cpd 1094] | 0.011 µM | – | – | 0.012 µM | –
